Reference: US20260327191A1, “GSK3a INHIBITORS AND METHODS OF USE THEREOF” (Blueprint Medicines Corporation, priority 2023, published 2026)

Assays:
human GSK3α = target: T1, human GSK3α (Homo sapiens, UniProt P49840); experiment: In vitro enzymatic activity assay, GSK3α; assay type: biochemical; details: 1.0 mM ATP, 1.0 μM peptide substrate, 120 min, 25° C, read-out: Enzyme GSK3α (IC50)
T1 construct: Full length human GSK3α or GSK3B expressed as N-terminal GST fusion proteins; GST (N); purchased Carna Biosciences (Japan); host or cells: baculovirus host
T1 sequence (P49840 whole entry, the tested form may be a part): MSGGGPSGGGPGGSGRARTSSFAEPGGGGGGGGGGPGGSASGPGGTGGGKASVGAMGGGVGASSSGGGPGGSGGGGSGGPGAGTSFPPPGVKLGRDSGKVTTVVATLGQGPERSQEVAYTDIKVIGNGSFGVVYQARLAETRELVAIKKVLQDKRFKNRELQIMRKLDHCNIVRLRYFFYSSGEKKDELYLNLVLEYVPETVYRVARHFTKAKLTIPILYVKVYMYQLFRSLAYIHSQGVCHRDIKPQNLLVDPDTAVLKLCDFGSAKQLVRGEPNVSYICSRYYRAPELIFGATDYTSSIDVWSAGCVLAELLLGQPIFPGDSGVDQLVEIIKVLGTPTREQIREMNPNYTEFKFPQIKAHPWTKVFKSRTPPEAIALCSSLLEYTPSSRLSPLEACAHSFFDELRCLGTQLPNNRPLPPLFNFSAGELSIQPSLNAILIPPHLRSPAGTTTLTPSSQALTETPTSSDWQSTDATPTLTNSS

GSK3A = target: T2, GSK3A (Homo sapiens, UniProt P49840); experiment: NanoBRET cellular target engagement assay, Nanoluc-GSK3A in HEK293 cells; assay type: cell-based; details: NanoBRET GSK3α IC50, HEK293 cells, tracer K-8, 2 hours, 37° C
T2 construct: expressed in transfected cells
T2 sequence (P49840 whole entry): as the sequence (P49840 whole entry, the tested form may be a part) above

GSK3B [1] = target: T3, GSK3B (Homo sapiens, UniProt P49841); experiment: NanoBRET cellular target engagement assay, Nanoluc-GSK3B in HEK293 cells; assay type: cell-based; parameters: expressed in transfected cells; details: NanoBRET GSK3β IC50, HEK293 cells, tracer K-8, 2 hours, 37° C
T3 sequence (P49841 whole entry, the tested form may be a part): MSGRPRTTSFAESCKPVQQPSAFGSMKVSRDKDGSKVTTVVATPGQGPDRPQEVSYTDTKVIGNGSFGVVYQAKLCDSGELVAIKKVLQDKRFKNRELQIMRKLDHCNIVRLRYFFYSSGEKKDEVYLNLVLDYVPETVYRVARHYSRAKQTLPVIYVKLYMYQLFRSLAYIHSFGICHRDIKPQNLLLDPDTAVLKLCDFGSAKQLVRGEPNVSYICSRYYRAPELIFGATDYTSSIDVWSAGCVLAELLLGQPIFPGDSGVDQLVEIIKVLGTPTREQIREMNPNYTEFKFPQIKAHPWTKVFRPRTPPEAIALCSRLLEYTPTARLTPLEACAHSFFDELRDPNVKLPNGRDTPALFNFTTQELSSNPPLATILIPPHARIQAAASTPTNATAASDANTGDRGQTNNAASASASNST

GSK3B [2] = target: T3, GSK3B; experiment: In vitro enzymatic activity assay, GSK3β; assay type: biochemical; parameters: Full length human GSK3α or GSK3B expressed as N-terminal GST fusion proteins; GST (N); purchased Carna Biosciences (Japan); host or cells: baculovirus host; details: 1.0 mM ATP, 1.0 μM peptide substrate, 120 min, 25° C, read-out: Enzyme GSK3β (IC50)

Row | SMILES | IC50 (human GSK3α) | IC50 (GSK3A) | IC50 (GSK3B [1]) | IC50 (GSK3B [2])
1 | Cc1cc([C@@H](C)F)cc(C)c1-n1cnc(N)c(C(=O)Nc2cncc([C@H]3CCCCN3)c2)c1=O (single isomer, unassigned) [Example 185, 4-amino-1-(4-((R)-1-fluoroethyl)-2,6-dimethylphenyl)-6-oxo-N-(5-((R)-piperidin-2-yl)pyridin-3-yl)-1,6-dihydropyrimidine-5-carboxamide or 4-amino-1-(4-((S)-1-fluoroethyl)-2,6-dimethylphenyl)-6-oxo-N-(5-((R)-piperidin-2-yl)pyridin-3-yl)-1,6-dihydropyrimidine-5-carboxamide] | 3.5 nM | 1.6 nM | 128 nM | 148 nM
2 | COc1cc(Cl)c(-n2cnc(N)c(C(=O)Nc3cncc([C@]4(N)CCCOC4)c3)c2=O)c(Cl)c1 (single isomer, unassigned) [Example 187, (R)-4-amino-N-(5-(3-aminotetrahydro-2H-pyran-3-yl)pyridin-3-yl)-1-(2,6-dichloro-4-methoxyphenyl)-6-oxo-1,6-dihydropyrimidine-5-carboxamide or (S)-4-amino-N-(5-(3-aminotetrahydro-2H-pyran-3-yl)pyridin-3-yl)-1-(2,6-dichloro-4-methoxyphenyl)-6-oxo-1,6-dihydropyrimidine-5-carboxamide] | 8.4 nM | 5.6 nM | 421 nM | 357 nM
3 | COc1cc(Cl)c(-n2cnc(N)c(C(=O)Nc3cncc([C@]4(N)CCCOC4)c3)c2=O)c(Cl)c1 (single isomer, unassigned) [Example 188, R)-4-amino-N-(5-(3-aminotetrahydro-2H-pyran-3-yl)pyridin-3-yl)-1-(2,6-dichloro-4-methoxyphenyl)-6-oxo-1,6-dihydropyrimidine-5-carboxamide or (S)-4-amino-N-(5-(3-aminotetrahydro-2H-pyran-3-yl)pyridin-3-yl)-1-(2,6-dichloro-4-methoxyphenyl)-6-oxo-1,6-dihydropyrimidine-5-carboxamide] | 10.4 nM | 3.9 nM | 345 nM | 460 nM
4 | Nc1ncn(-c2c(Cl)cccc2Cl)c(=O)c1C(=O)Nc1cccc([C@@H]2CNC(=O)CN2)c1 (single isomer, unassigned) [Example 189, (R)-4-amino-1-(2,6-dichlorophenyl)-6-oxo-N-(3-(5-oxopiperazin-2-yl)phenyl)-1,6-dihydropyrimidine-5-carboxamide or (S)-4-amino-1-(2,6-dichlorophenyl)-6-oxo-N-(3-(5-oxopiperazin-2-yl)phenyl)-1,6-dihydropyrimidine-5-carboxamide] | 133 nM | 69.4 nM | 4580 nM | 2160 nM
5 | Nc1ncn(-c2c(Cl)cccc2Cl)c(=O)c1C(=O)Nc1cccc([C@@H]2CNC(=O)CN2)c1 (single isomer, unassigned) [Example 190, (R)-4-amino-1-(2,6-dichlorophenyl)-6-oxo-N-(3-(5-oxopiperazin-2-yl)phenyl)-1,6-dihydropyrimidine-5-carboxamide or (S)-4-amino-1-(2,6-dichlorophenyl)-6-oxo-N-(3-(5-oxopiperazin-2-yl)phenyl)-1,6-dihydropyrimidine-5-carboxamide] | 37.6 nM | 26.7 nM | 3300 nM | 971 nM
6 | Nc1ncn(-c2c(Cl)cccc2Cl)c(=O)c1C(=O)Nc1cccc([C@H]2CC[C@H](CO)N2)c1 (single isomer, unassigned) [Example 191, 4-amino-1-(2,6-dichlorophenyl)-N-(3-((2R,5R)-5-(hydroxymethyl)pyrrolidin-2-yl)phenyl)-6-oxo-1,6-dihydropyrimidine-5-carboxamide or 4-amino-1-(2,6-dichlorophenyl)-N-(3-((2S,5S)-5-(hydroxymethyl)pyrrolidin-2-yl)phenyl)-6-oxo-1,6-dihydropyrimidine-5-carboxamide] | 5.7 nM | 4.7 nM | 304 nM | 230 nM
7 | CN[C@@H](C)c1cncc(NC(=O)c2c(N)ncn(-c3c(Cl)cc(OC4CC4)cc3Cl)c2=O)c1 (single isomer, unassigned) [Example 195, (S)-4-amino-1-(2,6-dichloro-4-cyclopropoxyphenyl)-N-(5-(1-(methylamino)ethyl)pyridin-3-yl)-6-oxo-1,6-dihydropyrimidine-5-carboxamide or (R)-4-amino-1-(2,6-dichloro-4-cyclopropoxyphenyl)-N-(5-(1-(methylamino)ethyl)pyridin-3-yl)-6-oxo-1,6-dihydropyrimidine-5-carboxamide] | 11 nM | 5.4 nM | 462 nM | 632 nM
8 | COCC[C@@H](N)c1cncc(NC(=O)c2c(N)ncn(-c3c(Cl)cccc3Cl)c2=O)c1 (single isomer, unassigned) [Example 197, (R)-4-amino-N-(5-(1-amino-3-methoxypropyl)pyridin-3-yl)-1-(2,6-dichlorophenyl)-6-oxo-1,6-dihydropyrimidine-5-carboxamide or (S)-4-amino-N-(5-(1-amino-3-methoxypropyl)pyridin-3-yl)-1-(2,6-dichlorophenyl)-6-oxo-1,6-dihydropyrimidine-5-carboxamide] | 15 nM | 7.2 nM | 403 nM | 850 nM
9 | COc1cc(Cl)c(-n2cnc(N)c(C(=O)Nc3cncc([C@@H](N)C(F)F)c3)c2=O)c(Cl)c1 (single isomer, unassigned) [Example 204, (R)-4-amino-N-(5-(1-amino-2,2-difluoroethyl)pyridin-3-yl)-1-(2,6-dichloro-4-methoxyphenyl)-6-oxo-1,6-dihydropyrimidine-5-carboxamide or (S)-4-amino-N-(5-(1-amino-2,2-difluoroethyl)pyridin-3-yl)-1-(2,6-dichloro-4-methoxyphenyl)-6-oxo-1,6-dihydropyrimidine-5-carboxamide] | 13.5 nM | 8.8 nM | 782 nM | 706 nM
10 | COc1cc(C)c(-n2cnc(N)c(C(=O)N[C@@H]3CCC[C@H](CN)C3)c2=O)c(Cl)c1 (single isomer, unassigned) [Example 206, 4-amino-N-((1R,3S)-3-(aminomethyl)cyclohexyl)-1-((S)-2-chloro-4-methoxy-6-methylphenyl)-6-oxo-1,6-dihydropyrimidine-5-carboxamide or 4-amino-N-((1S,3R)-3-(aminomethyl)cyclohexyl)-1-((S)-2-chloro-4-methoxy-6-methylphenyl)-6-oxo-1,6-dihydropyrimidine-5-carboxamide] | 9.4 nM | 3.1 nM | 139 nM | 260 nM
11 | Nc1ncn(-c2c(Cl)cccc2Cl)c(=O)c1C(=O)Nc1cccc([C@@H]2COCCCN2)c1 (single isomer, unassigned) [Example 211, (R)—N-(3-(1,4-oxazepan-3-yl)phenyl)-4-amino-1-(2,6-dichlorophenyl)-6-oxo-1,6-dihydropyrimidine-5-carboxamide or (S)—N-(3-(1,4-oxazepan-3-yl)phenyl)-4-amino-1-(2,6-dichlorophenyl)-6-oxo-1,6-dihydropyrimidine-5-carboxamide] | 15.9 nM | 8.6 nM | 797 nM | 888 nM
